Experimental data: patent publication US20250019385A1, “SPIROCYCLIC ANNULATED 2-AMINO-3-CYANO THIOPHENES AND DERIVATIVES FOR THE TREATMENT OF CANCER” (Boehringer Ingelheim International GmbH, priority 2023, published 2025)
Read-outs that look alike come from different tables or passages of the source.

Experiments:
[1] = Metabolic (microsomal) stability assay, human liver microsomes (HLM); assay type: in vitro ADME; details: 1 μM test compound, predicted clearance as percent of liver blood flow
Experimental: The metabolic degradation of the test compound is assayed at 37° C. with pooled liver microsomes (mouse (MLM), rat (RLM) or human (HLM)). The final incubation volume of 48 μL per time point contains TRIS buffer (pH 7.5; 0.1 M), magnesium chloride (6.5 mM), microsomal protein (0.5 mg/mL for mouse/rat, 1 mg/mL for human specimens) and the test compound at a final concentration of 1 μM. Following a short preincubation period at 37° C., the reactions are initiated by addition of 12 μL beta-nicotinamide adenine dinucleotide phosphate, reduced form (NADPH, 10 mM) and terminated by transferring an aliquot into solvent after different time points (0, 5, 15, 30, 60 min). Additionally, the NADPH-independent degradation is monitored in incubations without NADPH, terminated at the last time point by addition of acetonitrile. The quenched incubations are pelleted by centrifugation (4,000 rpm, 15 min). An aliquot of the supernatant is assayed by LC-MS/MS to quantify the concentration of parent compound in the individual samples.
In vitro intrinsic clearance (CLint,in vitro) is calculated from the time course of the disappearance of the test drug during the microsomal incubation. Each plot is fitted to the first-order elimination rate constant as C(t)=C0*exp(−ke*t), where C(t) and C0 are the concentration of unchanged test drug at incubation time t and that at preincubation and ke is the disappearance rate constant of the unchanged drug. Subsequently, CLint, in vitro (μL min^−1·amount protein) values are converted to predicted CLint,in vivo (mL min^−1·kg^−1) from incubation parameters according to the equation CLint, in vivo=CLint, in vitro×(incubation volume (mL)/amount protein (mg))×(amount protein (mg)/g liver tissue)×(liver weight/body wt.).
For better across species comparison the predicted clearance is expressed as percent of the liver blood flow [% QH] (mL min^−1·kg^−1) in the individual species. In general, high stability (corresponding to low % QH) of the compounds across species is desired.

NCI-H358 cells = experiment: NCI-H358 CTG proliferation assay (120 h) (NSCLC, G12C); assay type: cell-based
Experimental: (§1) NCI-H358 cells (ATCC No. CRL-5807) are dispensed into black 384-well plates, flat and clear bottom (Greiner, PNr. 781091) at a density of 200 cells per well in 60 μl RPMI-1640 ATCC-Formulation (Gibco #A10491)+10% FCS (fetal calf serum). Cells are incubated overnight at 37° C. in a humidified tissue culture incubator at 5% CO2. Compounds (10 mM stock in DMSO) are added at logarithmic dose series using the ECHO acoustic liquid handler system (Beckman Coulter), normalizing for added DMSO and including DMSO controls. All compound treatments are performed in technical duplicates. For the TO time point measurement, untreated cells are analyzed at the time of compound addition. Plates are incubated for 120 h, and cell viability is measured using CellTiter-Glo luminescent cell viability reagent (Promega product code G7570). Viability (stated as percent of control) is defined as relative luminescence units RLU of each well divided by the RLU of cells in DMSO controls. IC50 values are determined from viability measurements by non-linear regression using a four-parameter model.
(§2) IC50 values of representative compounds according to the invention measured with these assays in the indicated cell lines are presented in Table 46.

AsPC-1 cells = experiment: AsPC-1 CTG proliferation assay (120 h) (pancreatic cancer, G12D); assay type: cell-based
Experimental: as §1, with “AsPC-1” for “NCI-H358”, “CRL-1682)” for “No. CRL-5807)”, “500” for “200”, “RPMI” for “RPMI-1640”, “(PAN P04-18047)+10%” for “(Gibco #A10491)+10%”, “serum, HyClone, SH30084.03).” for “serum).”
as §2

MKN1 cells = experiment: MKN1 CTG proliferation assay (120 h) (gastric cancer, wt amplified); assay type: cell-based; details: Homo sapiens, MKN-1
Experimental: as §1, with “MKN1” for “NCI-H358”, “(JCRB0252)” for “(ATCC No. CRL-5807)”, “serum, HyClone, SH30084.03).” for “serum).”
as §2

NCI-H727 cells = experiment: NCI-H727 CTG proliferation assay (120 h) (lung cancer, G12V); assay type: cell-based; details: Homo sapiens
Experimental: as §1, with “NCI-H727” for “NCI-H358”, “CRL-5815)” for “CRL-5807)”, “500” for “200”, “RPMI” for “RPMI-1640”, “(PAN P04-18047)+10%” for “(Gibco #A10491)+10%”, “serum, HyClone, SH30084.03).” for “serum).”
as §2

Compound	HLM QH [1] [%]	IC50 (NCI-H358 cells; Homo sapiens) [nM]	IC50 (AsPC-1 cells; Homo sapiens, ASPC1) [nM]	IC50 (MKN1 cells) [nM]	IC50 (NCI-H727 cells) [nM]	IC50 (NCI-H358 cells) [nM]	IC50 (AsPC-1 cells) [nM]
C[C@H](Oc1nc(-c2onc3c2CCC[C@@]32CCCc3sc(N)c(C#N)c32)nc2c1n(C)c(=O)n2[C@H]1CC2CCC1O2)[C@@H]1CCCN1C (stereo partly drawn) [I-17]	<24	20	1480	325	48		
CO[C@@H]1C[C@@H]([C@H](C)Oc2nc(-c3onc4c3CCC[C@@]43CCCc4sc(N)c(C#N)c43)nc3c2CN(C2COC2)C[C@]32CCOC2)N(C)C1 [I-58]	52	5	314	21	5		
C[C@H](Oc1nc(-c2onc3c2CCC[C@@]32CCCc3sc(N)c(C#N)c32)nc2c1n(C)c(=O)n2[C@H]1CCCOC1)[C@@H]1CCCN1C [I-11]		387	4480	334	497		
CO[C@@H]1C[C@@H]([C@H](C)Oc2nc(-c3onc4c3CCC[C@@]43CCCc4sc(N)c(C#N)c43)nc3c2n(C)c(=O)n3[C@@H]2CCOC2)N(C)C1 [I-3]	42	4	438	22	5		
C[C@H](Oc1nc(-c2onc3c2CCC[C@@]32CCCc3sc(N)c(C#N)c32)nc2c1n(C)c(=O)n2[C@H]1CCOC1)[C@@H]1CCCN1C [I-9]	<24	52	751	135	138		
COCCn1c(=O)n(C)c2c(O[C@@H](C)[C@@H]3CCCN3C)nc(-c3onc4c3CCC[C@@]43CCCc4sc(N)c(C#N)c43)nc21 [I-7]	<24	124	4830	373	348		
CO[C@@H]1C[C@@H]([C@H](C)Oc2nc(-c3onc4c3CCC[C@@]43CCCc4sc(N)c(C#N)c43)nc3c2n(C)c(=O)n3[C@H]2COC[C@@H](C)C2)N(C)C1 [I-52]	46						
C[C@H](Oc1nc(-c2onc3c2CCC[C@@]32CCCc3sc(N)c(C#N)c32)nc2c1n(C)c(=O)n2[C@H]1CO[C@@H](C)C1)[C@@H]1CC[C@H](C)N1C [I-50]	35						
CO[C@H]1CCN(C)[C@@H]1[C@H](C)Oc1nc(-c2onc3c2CCC[C@@]32CCCc3sc(N)c(C#N)c32)nc2c1n(C)c(=O)n2[C@H]1COC[C@@H](C)C1 [I-51]	74						
C[C@H](Oc1nc(-c2onc3c2CCC[C@@]32CCCc3sc(N)c(C#N)c32)nc2c1n(C)c(=O)n2[C@H]1CO[C@@H](C)C1)[C@@H]1CCCN1C [I-47]	<24						
C[C@@H]1COC[C@H](n2c(=O)n(C)c3c(O[C@@H](C)[C@@H]4CCCN4C)nc(-c4onc5c4CCC[C@@]54CCCc5sc(N)c(C#N)c54)nc32)C1 [I-44]		7	271	10	2		
C[C@H](Oc1nc(-c2noc3c2CCC[C@@]32CCCc3sc(N)c(C#N)c32)nc2c1CC[C@]21CNCCO1)[C@@H]1C[C@@H](F)CN1C [II-20]	36					59	215

Continued, in another order:

HLM QH [1] [%]	IC50 (NCI-H358 cells; Homo sapiens) [nM]	IC50 (AsPC-1 cells; Homo sapiens, ASPC1) [nM]	IC50 (MKN1 cells) [nM]	IC50 (NCI-H727 cells) [nM]	Compound	IC50 (NCI-H358 cells) [nM]	IC50 (AsPC-1 cells) [nM]
36	1	40	2		C[C@H](Oc1nc(-c2noc3c2CCC[C@@]32CCCc3sc(N)c(C#N)c32)nc2c1n(C)c(=O)n2[C@H]1CO[C@@H](C)C1)[C@@H]1CCCN1C [II-5]		
40	4	338	4	3	C[C@H](Oc1nc(-c2noc3c2CCC[C@@]32CCCc3sc(N)c(C#N)c32)nc2c1n(C)c(=O)n2[C@@H]1CCOC1)[C@@H]1CCCN1C [II-2]		
64	3	81	6	1	CO[C@@H]1C[C@@H]([C@H](C)Oc2nc(-c3noc4c3CCC[C@@]43CCCc4sc(N)c(C#N)c43)nc3c2COC[C@]32CCOC2)N(C)C1 [II-11]		
52	3	265	12	1	CO[C@@H]1C[C@@H]([C@H](C)Oc2nc(-c3noc4c3CCC[C@@]43CCCc4sc(N)c(C#N)c43)nc3c2n(C)c(=O)n3[C@@]23COC[C@@H]2C3)N(C)C1 [II-6]		
59	4	57	19	3	CO[C@@H]1C[C@@H]([C@H](C)Oc2nc(-c3noc4c3CCC[C@@]43CCCc4sc(N)c(C#N)c43)nc3c2CN(C2COC2)C[C@]32CCOC2)N(C)C1 [II-14]		
64	1	34	4	1	C[C@H](Oc1nc(-c2noc3c2CCC[C@@]32SCCc3sc(N)c(C#N)c32)nc2c1COC[C@]21CCOC1)[C@@H]1CCCN1C [II-16]		
<24	106	629	635		C[C@H](Oc1nc(-c2noc3c2CCC[C@@]32CCCc3sc(N)c(C#N)c32)nc2c1CN(c1ncccn1)[C@@]21CCOC1)[C@@H]1CCCN1C [II-7b]		
	5	237	20	2	C[C@H](Oc1nc(-c2noc3c2CCC[C@@]32CCCc3sc(N)c(C#N)c32)nc2c1CN(C1COC1)C[C@]21CCOC1)[C@@H]1CC[C@H](C)N1C [II-17]		
36	43	315			C[C@H](Oc1nc(-c2noc3c2CCC[C@@]32CCCc3sc(N)c(C#N)c32)nc2c1CCC21CCOC1)[C@@H]1CCCN1C (stereo partly drawn) [II-18]		
<24	18	307	41		C[C@H](Oc1nc(-c2noc3c2CCC[C@@]32CCCc3sc(N)c(C#N)c32)nc2c1CN(c1ncccn1)[C@]21CCOC1)[C@@H]1CCCN1C [II-7a]		
